In patent US8592581B2, “Trisubstituted purine derivatives” (Cyclacel Limited, priority 2007, dated 2013):

Experiments:
[1] = tested on: Mcl-1; assay: Mcl-1 downregulation in H460 cells by Western blotting; format: cell-based
Experimental: The media was removed and the adherent cells washed with 5 ml PBS. […] Proteins were transferred to nitrocellulose membranes (Schleicher & Schuell, Dassel, Germany) using wet electrophoretic transfer. Membranes were stained with Ponceau S to confirm equal loading before blocking in 5% nonfat milk in PBS with 0.05% Tween 20 (PBSTM) for 2 hours. Membranes were incubated overnight at 4° C. with primary antibody (rabbit polyclonal antibody to Mcl-1, Santa Cruz), diluted 1:1000 in PBSTM. Membranes were washed 2×5 minute followed by 2×10 minute in PBS and 0.05% Tween 20 (PBST) and incubated for 1 hour in PBSTM containing horseradish peroxidase-conjugated secondary antibody. Membranes were washed as before and incubated with enhanced chemiluminescence solution (Amersham) and exposed to X-ray film (Amersham).
In a second experiment the effect of additional compounds on Mcl-1 levels was investigated.

[2] = tested on: MESSA; assay: Alamar blue cytotoxicity assay MESSA; format: cell-based; settings: Homo sapiens, MES-SA; 72 hours; read-out: cellular cytotoxicity IC50 MESSA
Experimental: (§1) In order to determine the cellular potency of the compounds, the cytotoxicity of each compound was determined against a range of cell lines. Standard cytotoxicity methods were performed as follows: cells were seeded in 96-well plates appropriately for their doubling time (2-5000 cells per well) in RPMI or DMEM media containing 10% FCS and incubated overnight at 37° C., 5% CO2. The media was removed and 100 μl fresh media containing increasing concentrations of appropriate compound was added and the cells incubated for 72 hours at 37° C., 5% CO2. A 10% stock of alamar blue (Roche, Lewes, United Kingdom) was prepared in medium and 100 μl added to the cells which were incubated for 2 hours. Absorbance was measured on the Wallac Victor 2 1420 multi-label counter at 544-595 nm.

[3] = molecular target: CDK 2 and CDK9; assay: In-vitro kinase potency screen against CDK 2 and CDK9 (statements in words); format: biochemical; settings: Table 7 (not given): [A1], [A2], [A3] and [1]
Experimental: To evaluate the in-vitro kinase potency of the compounds, they were screened against CDK 2 and CDK9. Kinase assays were performed in 96-well plates using recombinant CDK/cyclins generated at Cyclacel. Ltd Dundee, UK. CDK2 and CDK9 assays were performed in a total volume of 25 μl in assay buffer (25 mM b-glycerophosphate, 20 mM MOPS, 5 mM EGTA, 1 mM DTT and 1 mM NaVO3, pH 7.4), into which were added 2-4 μg of active enzyme with appropriate substrates (purified histone H1 for CDK2/cyclin E, and CDK2/cyclin A, biotinyl-Ahx-(YSPTSPS)4 for CDK9/cyclin T1). The reaction was initiated by addition of Mg/ATP mix (15 mM MgCl2+100 μM ATP with 30-50 kBq per well of [—^32P]-ATP) and mixtures incubated for 15 min (CDK2/cyclin E), 30 min (CDK2/cyclin A) or 45 min (CDK9/cyclin T1) as required, at 30° C. […] After washing 3 times with 75 mM orthophosphoric acid, plates were dried, scintillant added and incorporated radioactivity measured in a scintillation counter (TopCount, Packard Instruments, Pangbourne, Berks, UK). […]
To evaluate the in-vitro kinase potency of the compounds, they were screened against CDK 2 and CDK9. […] After washing 3 times with 75 mM orthophosphoric acid, plates were dried, scintillant added and incorporated radioactivity measured in a scintillation counter (TopCount, Packard Instruments, Pangbourne, Berks, UK). […]

[4] = molecular target: CYP2D6 (Homo sapiens (Human), UniProt P10635); assay: CYP2D6 inhibition, human liver microsomes, dextromethorphan; format: in vitro ADME
Experimental: Six test compound concentrations (0.05, 0.25, 0.5, 2.5, 5, 25 μM in DMSO; final DMSO concentration=0.25%) were incubated with human liver microsomes (0.5 mg/mL) and NADPH (1 mM) in the presence of the probe substrate dextromethorphan (5 μM) for 30 min at 37° C. The selective CYP2D6 inhibitor, quinidine, was screened alongside the test compounds as a positive control.
For the CYP1A incubations, the reactions were terminated by the addition of methanol, and the formation of the metabolite, resorufin, was monitored by fluorescence (excitation wavelength=535 nm, emission wavelength=595 nm). For the CYP2C9, CYP2C19, CYP2D6, and CYP3A4 incubations, the reactions were terminated by the addition of methanol containing internal standard. The samples were then centrifuged, and the supernatants were combined, for the simultaneous analysis of 4-hydroxytolbutamide, 4-hydroxymephenyloin, dextrorphan, and 1-hydroxymidazolam plus internal standard by LC-MS/MS using generic LC-MS/MS conditions. Formic acid in deionised water (final concentration=0.1%) was added to the final sample prior to analysis.

[5] = tested on: Colo205; assay: Alamar blue cytotoxicity assay Colo205; format: cell-based; settings: Homo sapiens, COLO 205; 72 hours; read-out: cellular cytotoxicity IC50 Colo205
Experimental: as §1

CYP2D6, sequence (P10635 whole entry): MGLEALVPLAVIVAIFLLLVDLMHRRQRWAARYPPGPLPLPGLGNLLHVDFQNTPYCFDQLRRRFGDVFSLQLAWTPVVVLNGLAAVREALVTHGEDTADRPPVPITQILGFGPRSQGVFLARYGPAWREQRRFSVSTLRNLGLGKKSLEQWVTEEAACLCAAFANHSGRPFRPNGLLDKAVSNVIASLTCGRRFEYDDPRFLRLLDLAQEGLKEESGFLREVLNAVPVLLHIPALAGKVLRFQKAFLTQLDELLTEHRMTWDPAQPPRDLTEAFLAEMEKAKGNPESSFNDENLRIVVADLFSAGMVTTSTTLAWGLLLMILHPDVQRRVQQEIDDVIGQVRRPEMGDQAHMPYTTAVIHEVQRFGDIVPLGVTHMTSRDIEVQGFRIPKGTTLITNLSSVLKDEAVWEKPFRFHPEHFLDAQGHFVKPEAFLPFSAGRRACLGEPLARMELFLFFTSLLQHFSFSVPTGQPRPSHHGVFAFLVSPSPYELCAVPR

## CC[C@H](Nc1nc(NCc2cnc(C)cc2C)c2ncn(C(C)C)c2n1)[C@@H](C)O [Compound [1]]
[1]; H460 cells, 0.5, 1.5, 4.5 and 13.5 μM, 5 hrs
  downregulating the levels of Mcl-1 (in words): most effective compound from this group
[1]; H460 cells, 24 hr
  concentration at which significant effects on Mcl-1 levels are observed: 1.5 µM
[2]
  IC50: 0.16 µM
[3]
  kinase inhibitor potency ranking (in words): most potent kinase inhibitors
[4]
  IC50: > 25 µM
[5]
  IC50: 0.31 µM
